In patent publication US12616192B2, “Compositions and methods for preserving or increasing platelet function” (Washington University, priority 2021, dated 2026):
Where two headings read alike, the source gives them in different places.

Experiments:
[1] = tested on: platelet concentrates (CS-PLT); assay: occlusive clot formation in a collagen-coated stenotic microfluidic chamber (microfluidic model of occlusion); type: cell-based; details: for time to occlude the microfluidic channel versus non-supplemented CS-PLT: 500 μM taurine at the beginning of storage
Method: Next, the ability of the platelet concentrates to form an occlusive clot against an arterial pressure head in a stenotic microfluidic chamber coated with collagen was analyzed (FIG. 2). The important variable/metric extracted from this platelet function is the occlusion area under the curve, or OAUC; a larger OAUC implies faster and more robust occlusion, and thus improved hemostatic platelet function.
To determine if this was the case, experiments were performed to supplement CS-PLT with taurine during storage, with the hypothesis that the supplemental (or “extra”) taurine would lead to inhibition of aggregation, as similar to the aforementioned reports from the literature. Next, the platelet concentrates were supplemented at the beginning of storage with 500 μM taurine, and assayed for alterations in function using a microfluidic model of occlusion.

platelets [2] = details: cited from earlier work
platelets [3] = details: rats fed taurine; cited from earlier work
platelets [4] = details: in vitro taurine addition; cited from earlier work

## NCCS(=O)(=O)O [taurine, 2-aminoethanesulfonic acid]
[1]; CS-PLT supplemented with 500 μM taurine at the beginning of storage (TaurSTORAGE)
  platelet aggregation (shift of occlusion curves, OAUC): increased platelet aggregation
[1]; D7 CS-PLT
  time to occlude the microfluidic channel versus non-supplemented CS-PLT: half of the time
[1]; D14 CS-PLT
  time to occlude the microfluidic channel versus non-supplemented CS-PLT: half of the time
[1]; D14 non-supplemented CS-PLT, exogenous taurine 500 μM added just prior to assessment (TaurASSAY)
  occlusion curve phenotype: middle phenotype
[1]; taurine supplementation during platelet concentrate storage
  hemostatic function under physiologically relevant flow: robustly increases hemostatic function
Platelets [2]; 1989 study, taurine supplementation in humans
  ex vivo platelet aggregation: reduced aggregation
Platelets [2]; 2010 study, healthy human donors that drank taurine-containing solutions
  ex vivo platelet aggregation: increased ex vivo aggregation
Platelets [3]
  ex vivo platelet aggregation: reduced platelet aggregation
Platelets [4]
  platelet aggregation: inhibit platelet aggregation
